Positions count from the first letter of the chain named.
Legend:
[1] = molecular target: T1, UGT2B7 (N315A)-BRIL (Homo sapiens, UniProt P16662, N315A); assay: Surface plasmon resonance binding to purified UGT2B7 (N315A)-BRIL; conditions: SPR, 25°C, Biacore T200, CM7 chip, steady-state affinity model
T1 construct: we selected the full-length UGT2B7 (N315A)-BRIL construct with BRIL covalently attached to the C-terminus of UGT2B7; made in house; host or cells: Spodoptera frugiperda Sf9 insect cells (Bac-to-Bac baculovirus)
T1 sequence (P16662 24-529 N315A): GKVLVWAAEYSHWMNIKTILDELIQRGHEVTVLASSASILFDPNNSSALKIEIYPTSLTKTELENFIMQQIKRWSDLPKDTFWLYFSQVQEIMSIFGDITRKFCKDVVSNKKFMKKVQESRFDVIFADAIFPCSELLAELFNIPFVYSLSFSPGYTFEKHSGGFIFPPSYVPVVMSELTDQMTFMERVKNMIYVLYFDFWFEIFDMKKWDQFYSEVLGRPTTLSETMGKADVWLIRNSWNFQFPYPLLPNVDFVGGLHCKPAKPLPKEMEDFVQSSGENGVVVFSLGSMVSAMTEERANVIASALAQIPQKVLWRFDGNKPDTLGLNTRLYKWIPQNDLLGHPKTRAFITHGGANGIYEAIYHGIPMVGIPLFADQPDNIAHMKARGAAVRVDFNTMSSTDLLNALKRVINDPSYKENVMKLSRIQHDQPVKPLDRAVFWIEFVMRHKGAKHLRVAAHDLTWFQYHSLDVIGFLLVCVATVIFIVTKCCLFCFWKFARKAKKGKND
Procedure: All experiments were performed with a running buffer containing phosphate buffer (pH 7.4), 0.002% LMNG, and 0.0002% CHS to maintain the concentration of detergent above the critical micelle concentration, which is necessary for the formation of micelles and the correct folding of the purified UGT2B7 proteins. About 8,500 response units of 6 × His-tag monoclonal antibody (Proteintech) were directly immobilized on the chip, which were desalted in 10 mM sodium acetate (pH 4.5). Then the purified UGT2B7 proteins flowed over the chip and coupled with the His-tag antibody at about 18,000 RU. And the blank channel was used as the negative control. Substrates or inhibitors solutions flowed over the chip at a flow rate of 30 μl/min and were contacted 120 s. Then, flowed running buffer at the same rate to dissociation 120 s. The obtained affinities data were analyzed with the BIA evaluation software using the steady-state affinity model.

[2] = molecular target: T2, UGT2B7-BRIL (Homo sapiens, UniProt P16662); assay: CPM thermostability assay (melting temperature) of UGT2B7-BRIL in the presence of compounds; format: binding; conditions: apo protein Tm […]; for melting temperature (Tm) of UGT2B7-BRIL in the presence of the compound alone: CPM fluorescence, 20-95°C ramp
T2 construct: 10xHis (C); made in house; host or cells: Spodoptera frugiperda Sf9 insect cells (Bac-to-Bac baculovirus)
T2 sequence (P16662 24-529): T1 sequence (P16662 24-529 N315A) with A292N
Procedure: The gain setting was determined at the beginning of the run and the melting temperature (Tm) was calculated from the point of inflection.

[3] = system: purified UGT2B7 proteins; assay: Glucuronidation of zidovudine by purified UGT2B7 proteins in detergent LMNG/CHS; format: in vitro ADME, human; conditions: purified protein in detergent LMNG/CHS, no phospholipid bilayer

Row | Kd [1] [µM] | melting temperature (Tm) of UGT2B7-BRIL in the presence of the compound alone [2] [°C] | melting temperature (Tm) of UGT2B7-BRIL in the presence of both cofactor (UDP) and substrate ([2]; substrate + UDP) [°C] | glucuronidation by purified UGT2B7 proteins [3] | Structure (SMILES)
1 | 49.8 | – | – | – | COc1ccc([C@@H]2CC(=O)c3c(O)cc(O)cc3O2)cc1O [Hesperetin]
2 | 17.3 | – | – | – | COc1cc2c(c(O)c1OC)-c1c(cc(OC)c(OC)c1OC)C[C@@H](C)[C@@H](C)C2 [Schisanhenol]
3 | 589 | 50.9 | – | – | O=c1ccn([C@@H]2O[C@H](COP(=O)([O-])OP(=O)([O-])O)[C@@H](O)[C@H]2O)c(=O)[nH]1.[Na+].[Na+] [UDP, uridine 5′-diphosphate disodium salt]
4 | – | 53.2 | 61.0 | not observed | Cc1cn([C@H]2C[C@H](N=[N+]=[N-])[C@@H](CO)O2)c(=O)[nH]c1=O [Zidovudine]
